The record followed here is patent US20110257139A1, “TREATMENT OF DIARRHOEA” (ROYAL COLLEGE OF SURGEONS IN IRELAND, priority 2008, published 2011).

Data set [1] concerns T84 cells. Nature of the data set: Cellular ATP levels in T84 cells (ENLITEN ATP Assay). The class given is cell-based. The settings on record: 5 μM, 24 hrs. As to the method: Cells were then lysed with hypotonic lysis buffer (2 mM EDTA, 100 mM Trizma base, brought to pH 7.75 with acetic acid) and frozen at −80° C. The lysate was later assayed for ATP content using the ENLITEN® ATP Assay System (Promega, Madison, Wis.).

For data set [2], the system named is T84 cells. Nature of the data set: Transepithelial conductance of T84 monolayers as a measure of cell viability. Type of data set: cell-based. The settings on record: various concentrations for 24 hrs. As to the method: Monolayers were then mounted in Ussing chambers and transepithelial conductance measurements were made as a measure of cell viability (n=4-13). Only at concentrations>10 μM did GW 4064 exert toxic effects on T84 cells. FIG. 5.

For another data set, the system named is Na^+/K^+ ATPase pump. Briefly: Abundance (western blotting) and surface expression (biotinylation) of Na^+/K^+ ATPase pump in T84 cells. Type of data set: cell-based. The settings on record: 5 μM, 24 hrs. On the procedure: Western Blotting: T84 monolayers were washed with ice-cold PBS and lysed (1% Nonidet P-40, 150 mmol/L NaCl, 50 mmol/L Tris Base, 1×Complete mini EDTA free protease inhibitor tablet, 0.1 mg/l mL PMSF, 1 mmol/L Na3VO4). Lysates were collected, centrifuged at 15,294×g for 10 minutes at 4° C., the pellet discarded, and the supernatant sonicated with 3×10 second pulses in order to disrupt membrane proteins. Samples were normalized for protein content and 2× gel loading buffer (50 mM Tris HCl, 100 mM DTT, 40% glycerol and 4% SDS) was added. Samples were then heated at 95° C. for 5 min, separated by sodium dodecyl sulphate polyacrylamide gel electrophoresis and transferred to PVDF membranes. Membranes were pre-blocked in 5% blocking buffer (Marvel in PBS) for 60 minutes at room temperature followed by incubation with primary antibody in 5% blocking buffer overnight at 4° C. […] After further washing (×4) in TBST, immunoreactive proteins were detected by enhanced chemiluminescence (Amersham Biosciences, UK).
Cell Surface Biotinylation: Following treatment T84 cell monolayers were washed ×3 in ice-cold PBS and freshly prepared biotinylation buffer (1 mg/mL sulfo-NHS-biotin (Pierce) in PBS) was added basolaterally. […] Na^+/K^+-ATPase □ subunit was detected by western blot analysis as described above.

For another data set, the system named is K^+ channel conductances. Briefly: Basolateral K^+ conductance in T84 monolayers (Ussing chambers). Type of data set: cell-based. The note with it: 5 μM, 24 hrs. On the procedure: To measure basolateral K^+ conductance T84 cell monolayers in Ussing chambers were apically permeabilized with amphotericin B (50 μmol/L). A K^+ gradient (123.2-5.2 mmol/L) was created across the basolateral membrane by addition of a high K^+ (123.2 mmol/L) Ringers solution, in which NaCl is substituted with K^+-gluconate, to the apical reservoir. Ouabain (100 μmol/L) was added basolaterally to inhibit Na^+/K^+-ATPase pump activity. Under these conditions changes in Isc are wholly reflective of changes in basolateral K^+ conductance (IK^+).

The next data set concerns mouse colon. Briefly: Ex vivo Isc measurements in muscle-stripped colon after intraperitoneal dosing of mice. The settings on record: 100 mg/kg intraperitoneally, 24 hrs. On the procedure: Animal Studies: Male C57BL6 mice were bred and maintained in an environmentally controlled animal facility at Beaumont Hospital. Experiments were performed on 6-9 week old animals and were in compliance with Irish Department of Health and Children regulations and approved by the Beaumont Hospital Ethics Committee. […] The distal colon was removed, stripped of underlying smooth muscle, and mounted in Ussing chambers (window area=0.3 cm^2). Results were normalized and expressed as ΔIsc (μA/cm^2).
Administration of a potent and selective FXR agonist inhibits Cl^− secretory responses in mouse colon. FIG. 10.

The subject of data set [3] is T84 cells. Briefly: Cl^− secretory (Isc) responses of T84 cell monolayers in Ussing chambers. The class given is cell-based. The settings on record: for Isc (Cl^− secretory) response to carbachol (CCh) / Isc (Cl^− secretory) response to forskolin: T84 monolayers pretreated with 1 μM for 24 hrs; for Isc (Cl^− secretory) response to carbachol (CCh): carbachol 100 μM; for Isc (Cl^− secretory) response to forskolin: forskolin 10 μM. As to the method:
Measurements of chloride secretion: Cultured T84 epithelial cells were employed as a model of the colonic epithelium. T84 cells were grown as monolayers on filter supports. When grown in this way T84 cells retain many of the characteristics of native intestinal epithelium and are widely considered as being among the best reductionist models for analysing intestinal epithelial secretory responses. […] After this time they were washed of GW 4064, mounted in Ussing chambers, and voltage-clamped to zero potential difference. Under these conditions, transepithelial ion transport can be measured as changes in short-circuit current (Isc) and such changes in Isc across T84 cells have been established as being wholly due to Cl^− ion secretion. After mounting the cells in Ussing chambers we measured Cl^− secretory responses to both the calcium- and cAMP-dependent agonists, carbachol (100 μM) and forskolin (10 μM), respectively.

On to GW4064, for which, in the data set with T84 cells [1], the “Cellular ATP levels” value was “does not alter”. Besides, the “Concentration exerting toxic effects on T84 cells (transepithelial conductance)” value in the data set on T84 cells [2] is above 10 µM. Further, in the data set on Na^+/K^+ ATPase pump, the “Cellular abundance of the catalytic α subunit of Na^+/K^+ ATPase (western blotting)” value was “does not alter” and the “Surface expression of Na^+/K^+ ATPase pump (biotinylation)” value is given as “does not alter”. Besides, the “K^+ channel conductances” value in the data set with K^+ channel conductances is “did not significantly alter”. In addition, in the data set with mouse colon, the “Ex vivo Isc response of colon to CCh” value was “significantly attenuated” and the “Ex vivo Isc response of colon to forskolin” value is “significantly attenuated”. In addition, in the data set on T84 cells [3] (GW4064 5 μM, 24 hrs), the “CCh-induced Cl^− secretory responses” value is recorded as “inhibited”. In the data set on T84 cells [3], the “Isc (Cl^− secretory) response to carbachol (CCh)” value is on record as “significantly attenuates” and the “Isc (Cl^− secretory) response to forskolin” value was “significantly attenuates”. In the data set on T84 cells [3] (listed as GW 4064), the “Isc (Cl^− secretory) response to carbachol (CCh)” value is recorded as “significantly reduce” and the “Isc (Cl^− secretory) response to forskolin” value is given as “significantly reduce”. Further, the “Time-dependence of attenuation of Cl^− secretory responses to CCh” value in the data set on T84 cells [3] (pretreated 5 μM for various periods of time, CCh 100 μM) is “attenuates Cl^− secretion in a time-dependent fashion”. Moreover, the “Concentration-dependence of antisecretory actions (Cl^− secretory responses to CCh and forskolin)” value in the data set with T84 cells [3] (pretreated 0.1-10 μM for 24 hrs) is “concentration-dependent”.
